Source: PubChem BioAssay (NCI)
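In this assay, cells in 96-well plates receive the compound at five concentrations for 48 hours. Endpoints are linearly interpolated between the surrounding concentrations. Definition used: TGI = concentration required for complete inhibition of growth.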

What was measured:
Assay in all cases: DTP human tumour cell line panel, 48 h
SF-539 CNS = tested on: SF-539 CNS
MDA-N = tested on: MDA-N
SW-620 colon = tested on: SW-620 colon
DU-145 prostate = tested on: DU-145 prostate
SK-OV-3 ovarian = tested on: SK-OV-3 ovarian
HOP-62 NSCLC = tested on: HOP-62 NSCLC
RPMI-8226 leukemia = tested on: RPMI-8226 leukemia
A549 NSCLC = tested on: A549 NSCLC
M14 melanoma = tested on: M14 melanoma
NCI-H460 lung = tested on: NCI-H460 lung
HL-60(TB) leukemia = tested on: HL-60(TB) leukemia
SR leukemia = tested on: SR leukemia
HT29 colon = tested on: HT29 colon
OVCAR-5 ovarian = tested on: OVCAR-5 ovarian
NCI-H23 lung = tested on: NCI-H23 lung
NCI-H226 lung = tested on: NCI-H226 lung
PC-3 prostate = tested on: PC-3 prostate
SN12C renal = tested on: SN12C renal
A498 renal = tested on: A498 renal
HCC-2998 colon = tested on: HCC-2998 colon
786-0 renal = tested on: 786-0 renal
ACHN renal = tested on: ACHN renal
UACC-62 melanoma = tested on: UACC-62 melanoma
U251 CNS = tested on: U251 CNS
IGROV1 ovarian = tested on: IGROV1 ovarian
OVCAR-8 ovarian = tested on: OVCAR-8 ovarian
OVCAR-4 ovarian = tested on: OVCAR-4 ovarian
MOLT-4 leukemia = tested on: MOLT-4 leukemia
LOX IMVI melanoma = tested on: LOX IMVI melanoma
MDA-MB-435 = tested on: MDA-MB-435
MALME-3M melanoma = tested on: MALME-3M melanoma
UACC-257 melanoma = tested on: UACC-257 melanoma
NCI/ADR-RES ovarian = tested on: NCI/ADR-RES ovarian
UO-31 renal = tested on: UO-31 renal
HCT-116 colon = tested on: HCT-116 colon
HOP-92 NSCLC = tested on: HOP-92 NSCLC
K-562 leukemia = tested on: K-562 leukemia
MCF7 breast = tested on: MCF7 breast
CCRF-CEM leukemia = tested on: CCRF-CEM leukemia
HS 578T breast = tested on: HS 578T breast
BT-549 breast = tested on: BT-549 breast
COLO 205 colon = tested on: COLO 205 colon
CAKI-1 renal = tested on: CAKI-1 renal
MDA-MB-231 breast = tested on: MDA-MB-231 breast
RXF 393 renal = tested on: RXF 393 renal
T-47D breast = tested on: T-47D breast
KM12 colon = tested on: KM12 colon
SF-268 CNS = tested on: SF-268 CNS
SK-MEL-28 melanoma = tested on: SK-MEL-28 melanoma
SNB-75 CNS = tested on: SNB-75 CNS
SNB-19 CNS = tested on: SNB-19 CNS
HCT-15 colon = tested on: HCT-15 colon
EKVX NSCLC = tested on: EKVX NSCLC
SF-295 CNS = tested on: SF-295 CNS
NCI-H522 lung = tested on: NCI-H522 lung
SK-MEL-2 melanoma = tested on: SK-MEL-2 melanoma
OVCAR-3 ovarian = tested on: OVCAR-3 ovarian
TK-10 renal = tested on: TK-10 renal
SK-MEL-5 melanoma = tested on: SK-MEL-5 melanoma

## CN1CSC(=S)N(c2c3ccccc3nc3ccc(Br)cc23)C1
SF-539 CNS
  TGI: 25.7 µM
MDA-N
  TGI: 25.3 µM
SW-620 colon
  TGI: 23.8 µM
DU-145 prostate
  TGI: 22 µM
SK-OV-3 ovarian
  TGI: 31.1 µM
HOP-62 NSCLC
  TGI: 51 µM
RPMI-8226 leukemia
  TGI: 31.4 µM
A549 NSCLC
  TGI: 21.6 µM
M14 melanoma
  TGI: 26.9 µM
NCI-H460 lung
  TGI: 13.6 µM
HL-60(TB) leukemia
  TGI: 27.2 µM
SR leukemia
  TGI: 12.6 µM
HT29 colon
  TGI: 23.1 µM
OVCAR-5 ovarian
  TGI: 31.6 µM
NCI-H23 lung
  TGI: 23.5 µM
NCI-H226 lung
  TGI: 37 µM
PC-3 prostate
  TGI: 26.3 µM
SN12C renal
  TGI: 18.8 µM
A498 renal
  TGI: 27 µM
HCC-2998 colon
  TGI: 8.3 µM
786-0 renal
  TGI: 16.6 µM
ACHN renal
  TGI: 19.5 µM
UACC-62 melanoma
  TGI: 27.4 µM
U251 CNS
  TGI: 20.4 µM
IGROV1 ovarian
  TGI: 25.1 µM
OVCAR-8 ovarian
  TGI: > 51.2 µM
OVCAR-4 ovarian
  TGI: 25.7 µM
MOLT-4 leukemia
  TGI: 5.87 µM
LOX IMVI melanoma
  TGI: > 53.4 µM
MDA-MB-435
  TGI: 26.5 µM
MALME-3M melanoma
  TGI: 33.2 µM
UACC-257 melanoma
  TGI: 24.8 µM
NCI/ADR-RES ovarian
  TGI: 30.9 µM
UO-31 renal
  TGI: 22.4 µM
HCT-116 colon
  TGI: 15.7 µM
HOP-92 NSCLC
  TGI: 32.7 µM
K-562 leukemia
  TGI: > 32.4 µM
MCF7 breast
  TGI: 24.1 µM
CCRF-CEM leukemia
  TGI: 22.8 µM
HS 578T breast
  TGI: 47.2 µM
BT-549 breast
  TGI: 32.2 µM
COLO 205 colon
  TGI: 20 µM
CAKI-1 renal
  TGI: 24 µM
MDA-MB-231 breast
  TGI: 22.9 µM
RXF 393 renal
  TGI: 24.7 µM
T-47D breast
  TGI: 38.3 µM
KM12 colon
  TGI: 33.6 µM
SF-268 CNS
  TGI: 27.4 µM
SK-MEL-28 melanoma
  TGI: 35.2 µM
SNB-75 CNS
  TGI: 23.7 µM
SNB-19 CNS
  TGI: 26 µM
HCT-15 colon
  TGI: 20.4 µM
EKVX NSCLC
  TGI: 33.1 µM
SF-295 CNS
  TGI: 21.2 µM
NCI-H522 lung
  TGI: 12.6 µM
SK-MEL-2 melanoma
  TGI: 29.3 µM
OVCAR-3 ovarian
  TGI: 33.3 µM
TK-10 renal
  TGI: 21.9 µM
SK-MEL-5 melanoma
  TGI: 26.2 µM
